The values below come from publication PMC6123015 (Biochemistry, 2018).

The experiment has as its target T1, macrophage migration inhibitory factor-1 (MIF-1) (Homo sapiens, UniProt P14174).
T1 sequence (P14174 2-115): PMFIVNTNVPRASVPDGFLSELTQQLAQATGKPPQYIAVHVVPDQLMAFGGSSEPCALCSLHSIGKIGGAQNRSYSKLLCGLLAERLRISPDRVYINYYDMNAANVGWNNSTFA
The experiment in a line: HPP tautomerase inhibition kinetics with purified protein. Format: biochemical.

As for `O=C(O)c1cccc(-c2cc(C(=O)O)ncc2C(=O)O)c1` [4-CPPC, 4-(3-Carboxyphenyl)-2,5pyridinedicarboxylic acid], the affinity, expressed as Ki, was 431 ± 37 µM.
